Assay results published in patent publication US9751824B2, “Acetyl salicyclic acid dimers, synthesis thereof, and uses thereof to prevent and treat complement-mediated disorders” (Aurin Biotech Inc., priority 2013, dated 2017).

Columns and labels:
Factor B = target: T1, Factor B (Homo sapiens, UniProt P00751); experiment: Fluorometric binding to immobilized protein (FIG. 6); details: compound 100 microgm/mL; protein 32 ng/mL
T1 construct: purchased Sigma, St. Louis, MO
Description: (§1) The next set of experiments directly tested the binding of DAS-1 and DAS-2 to properdin, Factor D and complement proteins. These proteins were immobilized on microwell plates in a concentration range of 1-32 ng/mL. DAS-1 and DAS-2 were then added at a concentration of 100 microgm/mL and the solutions incubated as previously described. DAS-1 and DAS-2 binding to the proteins was then assayed according to a previously published fluorometric method except that the excitation frequency was […] and the emission frequency […]. […] Such binding explains why DAS-1 and DAS-2 block the alternative pathway at the stage where Factor D cleaves PC3B to form PC3Bb, and both the classical and alternative pathways at the stage where C9 adds to C5b678. […] There was no binding of DAS-1 or DAS-2 to properdin and only background fluorescence was observed.

C2 = target: T2, C2 (Homo sapiens, UniProt P06681); experiment: as above; details: compound 100 microgm/mL; protein 32 ng/mL
T2 construct: purchased Sino Biologicals Inc., Beijing, China
T2 sequence (P06681 21-752): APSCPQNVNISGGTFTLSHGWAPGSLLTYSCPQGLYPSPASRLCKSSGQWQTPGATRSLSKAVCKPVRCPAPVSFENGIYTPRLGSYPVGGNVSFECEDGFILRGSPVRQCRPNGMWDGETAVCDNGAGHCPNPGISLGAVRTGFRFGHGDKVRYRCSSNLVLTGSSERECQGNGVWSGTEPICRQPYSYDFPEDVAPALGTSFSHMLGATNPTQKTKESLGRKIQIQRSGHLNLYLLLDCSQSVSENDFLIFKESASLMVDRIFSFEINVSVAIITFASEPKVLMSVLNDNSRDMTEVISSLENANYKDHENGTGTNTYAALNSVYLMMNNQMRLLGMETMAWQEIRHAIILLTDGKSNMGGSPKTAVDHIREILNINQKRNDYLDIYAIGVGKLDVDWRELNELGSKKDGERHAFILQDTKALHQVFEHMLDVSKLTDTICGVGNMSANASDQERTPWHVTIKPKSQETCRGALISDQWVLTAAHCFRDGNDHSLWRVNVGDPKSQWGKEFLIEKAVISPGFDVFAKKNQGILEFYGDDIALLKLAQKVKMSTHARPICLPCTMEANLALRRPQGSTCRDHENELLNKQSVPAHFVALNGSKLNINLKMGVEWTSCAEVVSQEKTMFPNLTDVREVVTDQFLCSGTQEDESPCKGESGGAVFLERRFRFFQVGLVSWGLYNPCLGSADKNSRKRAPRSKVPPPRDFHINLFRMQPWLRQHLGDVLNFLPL
Description: as §1

C5 = target: T3, C5 (Homo sapiens, UniProt P01031); experiment: as above; details: compound 100 microgm/mL; protein 32 ng/mL
T3 construct: purchased Complement technology Inc., Tyler, TX
T3 sequence (P01031 19-1676): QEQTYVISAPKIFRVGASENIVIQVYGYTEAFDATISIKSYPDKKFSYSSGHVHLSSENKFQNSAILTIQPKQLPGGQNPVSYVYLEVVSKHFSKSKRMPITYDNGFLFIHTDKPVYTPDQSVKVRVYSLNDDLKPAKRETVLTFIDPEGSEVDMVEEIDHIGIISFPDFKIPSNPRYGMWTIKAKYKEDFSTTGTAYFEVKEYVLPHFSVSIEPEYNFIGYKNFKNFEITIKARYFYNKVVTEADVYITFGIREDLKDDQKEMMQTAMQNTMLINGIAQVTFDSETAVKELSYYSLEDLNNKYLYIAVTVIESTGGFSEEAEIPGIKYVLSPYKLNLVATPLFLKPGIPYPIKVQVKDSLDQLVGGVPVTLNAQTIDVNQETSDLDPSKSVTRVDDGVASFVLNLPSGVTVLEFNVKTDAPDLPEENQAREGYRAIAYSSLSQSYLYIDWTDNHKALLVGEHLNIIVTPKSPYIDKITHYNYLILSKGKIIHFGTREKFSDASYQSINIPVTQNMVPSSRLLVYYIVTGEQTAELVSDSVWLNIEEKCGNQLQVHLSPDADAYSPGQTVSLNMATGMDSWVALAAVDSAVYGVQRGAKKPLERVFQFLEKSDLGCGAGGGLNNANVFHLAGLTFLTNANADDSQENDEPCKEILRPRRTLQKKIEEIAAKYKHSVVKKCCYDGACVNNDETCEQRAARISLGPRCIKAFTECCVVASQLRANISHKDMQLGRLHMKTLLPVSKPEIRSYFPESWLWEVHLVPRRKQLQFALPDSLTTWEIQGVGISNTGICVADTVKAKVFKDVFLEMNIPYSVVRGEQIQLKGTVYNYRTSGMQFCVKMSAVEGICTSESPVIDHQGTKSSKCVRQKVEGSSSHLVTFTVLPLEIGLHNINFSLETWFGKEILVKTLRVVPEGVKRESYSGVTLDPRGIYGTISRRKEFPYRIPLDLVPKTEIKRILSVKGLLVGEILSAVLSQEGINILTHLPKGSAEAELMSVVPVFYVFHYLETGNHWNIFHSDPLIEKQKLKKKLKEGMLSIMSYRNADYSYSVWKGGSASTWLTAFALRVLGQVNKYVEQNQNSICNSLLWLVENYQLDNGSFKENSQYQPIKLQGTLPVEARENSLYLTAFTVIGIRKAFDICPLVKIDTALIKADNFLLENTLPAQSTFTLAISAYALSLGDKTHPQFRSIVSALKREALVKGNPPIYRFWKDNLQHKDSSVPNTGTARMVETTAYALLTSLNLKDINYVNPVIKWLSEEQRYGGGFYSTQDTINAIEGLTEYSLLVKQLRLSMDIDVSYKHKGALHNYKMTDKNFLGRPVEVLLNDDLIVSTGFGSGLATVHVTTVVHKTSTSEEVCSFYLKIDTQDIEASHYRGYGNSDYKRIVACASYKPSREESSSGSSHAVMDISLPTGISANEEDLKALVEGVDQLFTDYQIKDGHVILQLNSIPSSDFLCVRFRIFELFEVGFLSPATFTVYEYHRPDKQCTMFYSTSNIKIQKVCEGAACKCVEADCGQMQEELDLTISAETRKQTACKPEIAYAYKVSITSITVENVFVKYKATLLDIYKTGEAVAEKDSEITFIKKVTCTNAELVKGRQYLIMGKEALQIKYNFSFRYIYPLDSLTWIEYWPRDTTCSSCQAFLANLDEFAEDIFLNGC
Description: as §1

C3 = target: T4, C3 (Homo sapiens, UniProt P01024); experiment: as above; details: compound 100 microgm/mL; protein 32 ng/mL
T4 construct: purchased Sigma, St. Louis, MO
Description: as §1

C8 = target: T5, C8 (Homo sapiens, UniProt P07357+P07358+P07360); experiment: as above; details: compound 100 microgm/mL; protein 32 ng/mL
T5 construct: purchased Sigma, St. Louis, MO
Description: as §1

C6 = target: T6, C6 (Homo sapiens, UniProt P13671); experiment: as above; details: compound 100 microgm/mL; protein 32 ng/mL
T6 construct: purchased Sigma, St. Louis, MO
Description: as §1

C9 = target: T7, C9 (Homo sapiens, UniProt P02748); experiment: as above; details: compound 100 microgm/mL; protein immobilized 1-32 ng/mL
T7 construct: purchased Sigma, St. Louis, MO
T7 sequence (P02748 22-559): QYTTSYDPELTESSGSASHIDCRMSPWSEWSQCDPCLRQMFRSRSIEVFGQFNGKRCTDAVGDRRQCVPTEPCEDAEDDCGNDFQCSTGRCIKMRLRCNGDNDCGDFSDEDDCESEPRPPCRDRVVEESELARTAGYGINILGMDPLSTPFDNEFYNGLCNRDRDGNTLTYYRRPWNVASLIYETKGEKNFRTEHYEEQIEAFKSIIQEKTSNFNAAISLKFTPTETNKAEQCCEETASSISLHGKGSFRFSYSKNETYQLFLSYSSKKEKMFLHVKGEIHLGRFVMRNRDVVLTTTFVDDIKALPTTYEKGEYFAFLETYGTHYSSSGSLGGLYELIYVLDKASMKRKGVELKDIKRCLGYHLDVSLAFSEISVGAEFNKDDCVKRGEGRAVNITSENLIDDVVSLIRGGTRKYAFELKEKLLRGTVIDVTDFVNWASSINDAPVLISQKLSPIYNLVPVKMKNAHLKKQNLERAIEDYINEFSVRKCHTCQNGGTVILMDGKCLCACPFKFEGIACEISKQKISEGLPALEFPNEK
Description: as §1

Factor D = target: T8, Factor D (Homo sapiens, UniProt P00746); experiment: as above; details: compound 100 microgm/mL; protein immobilized 1-32 ng/mL
T8 construct: purchased Quidel, San Diego, CA
T8 sequence (P00746 26-253): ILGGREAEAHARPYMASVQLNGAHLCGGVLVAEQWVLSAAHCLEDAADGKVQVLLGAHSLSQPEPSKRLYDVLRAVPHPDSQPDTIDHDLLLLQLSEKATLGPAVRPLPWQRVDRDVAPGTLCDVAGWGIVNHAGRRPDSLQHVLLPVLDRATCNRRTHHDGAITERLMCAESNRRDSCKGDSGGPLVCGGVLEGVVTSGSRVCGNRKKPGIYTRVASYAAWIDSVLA
Description: as §1

C7 = target: T9, C7 (Homo sapiens, UniProt P10643); experiment: as above; details: compound 100 microgm/mL; protein 32 ng/mL
T9 construct: purchased Quidel, San Diego, CA
T9 sequence (P10643 23-843): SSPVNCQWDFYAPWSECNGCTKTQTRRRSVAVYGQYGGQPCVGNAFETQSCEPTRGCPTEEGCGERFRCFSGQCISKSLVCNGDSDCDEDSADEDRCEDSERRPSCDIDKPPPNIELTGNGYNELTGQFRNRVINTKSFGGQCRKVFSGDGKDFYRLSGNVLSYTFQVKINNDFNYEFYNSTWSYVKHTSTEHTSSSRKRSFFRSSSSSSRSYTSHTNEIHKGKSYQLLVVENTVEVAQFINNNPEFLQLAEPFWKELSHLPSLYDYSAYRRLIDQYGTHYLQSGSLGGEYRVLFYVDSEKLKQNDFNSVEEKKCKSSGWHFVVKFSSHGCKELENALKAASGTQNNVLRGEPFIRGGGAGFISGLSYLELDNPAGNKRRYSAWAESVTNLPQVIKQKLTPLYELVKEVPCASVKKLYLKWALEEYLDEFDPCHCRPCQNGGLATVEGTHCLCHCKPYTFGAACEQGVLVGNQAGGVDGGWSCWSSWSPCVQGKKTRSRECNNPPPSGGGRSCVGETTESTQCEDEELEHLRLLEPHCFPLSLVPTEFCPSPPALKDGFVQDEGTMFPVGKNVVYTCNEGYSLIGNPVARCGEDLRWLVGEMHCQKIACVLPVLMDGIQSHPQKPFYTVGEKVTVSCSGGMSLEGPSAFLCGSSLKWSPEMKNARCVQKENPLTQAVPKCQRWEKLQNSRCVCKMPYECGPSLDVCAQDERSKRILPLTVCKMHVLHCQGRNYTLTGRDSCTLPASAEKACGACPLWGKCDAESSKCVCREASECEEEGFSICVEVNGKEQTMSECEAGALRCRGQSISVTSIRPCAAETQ
Description: as §1

properdin = target: T10, properdin (Homo sapiens, UniProt P27918); experiment: as above; details: compound 100 microgm/mL; only background fluorescence
T10 construct: purchased Quidel, San Diego, CA
T10 sequence (P27918 28-469): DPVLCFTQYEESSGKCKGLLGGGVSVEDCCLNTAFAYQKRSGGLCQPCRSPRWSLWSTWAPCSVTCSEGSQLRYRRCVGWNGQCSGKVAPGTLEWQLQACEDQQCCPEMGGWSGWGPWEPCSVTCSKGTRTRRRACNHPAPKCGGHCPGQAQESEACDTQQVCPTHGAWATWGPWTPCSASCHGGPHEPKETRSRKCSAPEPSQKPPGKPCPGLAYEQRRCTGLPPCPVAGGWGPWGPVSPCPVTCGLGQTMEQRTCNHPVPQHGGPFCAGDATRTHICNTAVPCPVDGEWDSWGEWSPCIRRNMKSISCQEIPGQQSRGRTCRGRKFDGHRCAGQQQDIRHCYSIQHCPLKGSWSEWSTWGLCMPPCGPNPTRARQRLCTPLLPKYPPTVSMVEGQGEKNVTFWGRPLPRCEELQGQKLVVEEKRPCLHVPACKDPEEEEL
Description: as §1

[1] = target: T11, C5b-9 membrane attack complex (Homo sapiens, UniProt P02748); experiment: Western blot of membrane attack complex assembly stage with C6, C7, C8, C9 antibodies (FIG. 4B); type: cell-based; details: western blots probed with antibodies to C6, C7, C8 and C9
T11 construct: from tissue; host or cells: human serum, with human red blood cells as the target membrane
T11 sequence (P02748 22-559, one chain of several): as the sequence (P02748 22-559) above
Description: To determine at which stage of the complement cascade blockade was occurring, a variation of the CH50 assay was carried out. Instead of measuring hemolysis, western blot analyses of red blood cell membranes were carried out to determine which serum complement proteins were converted into activated complement products that became attached to susceptible membranes. Such attachment only occurs up to the stage of blockade. At stages beyond the blockade, they remain unchanged in the serum. Undiluted human serum was treated for 30 min with DAS-1, DAS-2, or acetyl salicylic acid. Then antibody-conjugated red blood cells in an equal volume were added. The mixtures were incubated at 37° C. for 1 h. They were then treated with a lysis buffer followed by a loading buffer for western blots. Equal amounts of protein from each sample were loaded onto gels and separated by 10% SDS-PAGE. Following SDS-PAGE, proteins were transferred to a PVDF membrane. The membranes were then treated with various primary antibodies followed by labeled secondary antibodies using well established techniques. Bands recognized by the antibodies were visualized by use of an enhanced chemiluminescence system and exposure to photographic film. […] The C6 antibody detected C5b6, C5b67, and C5b678. The C7 antibody detected C5b67 and C5b678, while the C8 antibody detected C5b678. […]

T1 sequence (P00751 26-764): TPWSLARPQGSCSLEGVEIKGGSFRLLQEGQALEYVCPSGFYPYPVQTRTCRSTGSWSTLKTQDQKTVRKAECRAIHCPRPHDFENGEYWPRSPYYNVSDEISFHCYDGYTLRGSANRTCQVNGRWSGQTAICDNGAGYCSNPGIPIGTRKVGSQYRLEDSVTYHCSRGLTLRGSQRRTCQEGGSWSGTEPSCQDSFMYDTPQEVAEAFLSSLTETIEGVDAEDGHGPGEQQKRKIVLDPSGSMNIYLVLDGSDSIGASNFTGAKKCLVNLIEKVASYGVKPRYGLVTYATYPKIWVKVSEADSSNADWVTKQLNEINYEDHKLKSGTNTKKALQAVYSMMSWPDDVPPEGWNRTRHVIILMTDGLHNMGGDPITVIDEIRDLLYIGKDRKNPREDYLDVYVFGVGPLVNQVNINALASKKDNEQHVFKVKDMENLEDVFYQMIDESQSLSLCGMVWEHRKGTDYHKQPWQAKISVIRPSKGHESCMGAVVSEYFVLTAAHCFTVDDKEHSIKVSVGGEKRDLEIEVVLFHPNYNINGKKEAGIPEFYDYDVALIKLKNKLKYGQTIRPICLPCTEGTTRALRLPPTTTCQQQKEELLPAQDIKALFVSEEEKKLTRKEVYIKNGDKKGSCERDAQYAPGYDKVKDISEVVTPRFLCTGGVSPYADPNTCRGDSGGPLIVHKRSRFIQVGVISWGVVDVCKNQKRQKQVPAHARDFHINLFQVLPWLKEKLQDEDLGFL

Q: What does the source list for `CC(=O)Oc1ccc(-c2ccc(OC(C)=O)c(C(=O)O)c2)cc1C(=O)O` [DAS-1, 4,4′-diacetoxy-[1,1′-biphenyl]-3,3′-dicarboxylic acid]?
A: binding to Factor B (Factor B): did not bind; binding to C2 (C2): did not bind; binding to C5 (C5): did not bind; binding to C3 (C3): did not bind; binding to C8 (C8): did not bind; binding to C6 (C6): did not bind; binding to C9 (C9): bound strongly; binding to Factor D (Factor D): bound strongly; binding to C7 (C7): did not bind; binding to properdin (properdin): no binding; stage at which membrane attack complex formation is arrested [1]: arrested at the C8 stage

Q: How did the “binding to Factor B” value (Factor B) turn out when `CC(=O)Oc1ccc(Cc2ccc(OC(C)=O)c(C(=O)O)c2)cc1C(=O)O` [DAS-2, 5,5′-methylenebis(2-acetoxybenzoic acid)] was run?
A: did not bind

Q: What about the “binding to C2” value (C2) of the same compound?
A: did not bind

Q: What about the “binding to C5” value (C5) of the same compound?
A: did not bind

Q: And the “binding to C3” value (C3)?
A: did not bind

Q: What about the “binding to C8” value (C8) of the same compound?
A: did not bind

Q: And the “binding to C6” value (C6)?
A: did not bind

Q: What about the “binding to C9” value (C9) of the same compound?
A: bound strongly

Q: What about the “binding to Factor D” value (Factor D) of the same compound?
A: bound strongly

Q: And the “binding to C7” value (C7)?
A: did not bind

Q: What about the binding to properdin (properdin) of the same compound?
A: no binding

Q: What about the “stage at which membrane attack complex formation is arrested” value [1] of the same compound?
A: same results as in lane 3
